Measured values from ChEMBL document CHEMBL2401647, “High potency improvements to weak aryl uracil HCV polymerase inhibitor leads” (Bioorg Med Chem Lett, 2013).
In brackets after ≈: the same amount, converted by molar mass.

Columns and labels:
Hepatitis C virus [1] = assay: Inhibition of Hepatitis C virus genotype 1b NS5B polymerase; parameters: species or system Hepatitis C virus subtype 1b
Hepatitis C virus [2] = assay: Antiviral activity against Hepatitis C virus genotype 1a infected in human HuH7 cells; type: functional, organism-based, Hepacivirus hominis; conditions: subtype 1a, Huh-7
[3] = Inhibition of Hepatitis C virus genotype 1a NS5B polymerase; parameters: species or system Hepatitis C virus subtype 1a
Hepatitis C virus [4] = assay: Antiviral activity against Hepatitis C virus genotype 1b infected in human HuH7 cells; type: functional, organism-based, Hepacivirus hominis; conditions: Huh-7
[5] = AUC in po dosed rat; type: ADME, organism-based; conditions: plasma
[6] = Solubility of the compound; type: physicochemical
[7] = AUC in rat; type: ADME, organism-based; conditions: plasma
[8] = Permeability of the compound; type: ADME; conditions: not told; read-out: permeability
[9] = Oral bioavailability in rat; type: ADME, organism-based; conditions: in vivo
[10] = Half life in iv dosed rat; type: ADME, organism-based; conditions: in vivo
[11] = Cytotoxicity against human HuH7 cells; type: cell-based; conditions: Huh-7 cells, read-out: TD50 (the source's name)

SMILES | IC50 (Hepatitis C virus [1]) [nM] | EC50 (Hepatitis C virus [2]) [nM] | IC50 [3] [nM] | EC50 (Hepatitis C virus [4]) [nM] | AUC [5] [ng·h/mL] | solubility [6] [µM] | AUC [7] [ng·h/mL] | Papp [8] [×10⁻⁶ cm/s] | bioavailability [9] [%] | half-life [10] [min] | CC50 [11] [nM]
CC(C)(C)c1cc(N2CCC(=O)NC2=O)cc(C(=O)Nc2ccccc2)c1O | 230 | 18600 | 4280 | 6310 |  |  |  |  |  |  | 
COc1c(C(=O)Nc2ccccc2)cc(N2CCC(=O)NC2=O)cc1C(C)(C)C | 750 | 3670 | 890 | 1030 | 330 | 12 (≈ 4.75 µg/mL) | 2190 | 1.4 | 15 | 30 | 
CC(C)(C)c1cc(N2CCC(=O)NC2=O)cc(C(=O)NCc2ccccc2)c1O | 940 | 14200 | 8590 | 15300 |  |  |  |  |  |  | 
COc1c(C(=O)Nc2ccc(N)cc2)cc(N2CCC(=O)NC2=O)cc1C(C)(C)C | 1240 | > 50000 | 2060 | 4240 |  |  |  |  |  |  | 
CC(C)(C)c1cc(N2CCC(=O)NC2=O)cc(C(=O)Nc2ccc(NS(C)(=O)=O)cc2)c1O | 2 | 390 | 20 | 50 |  |  |  |  |  |  | 
CC(C)(C)c1cc(N2CCC(=O)NC2=O)cc(C(=O)Nc2ccc(OS(C)(=O)=O)cc2)c1O | 30 | 4650 | 180 | 1130 |  |  |  |  |  |  | > 50000
CN(c1ccc(NC(=O)c2cc(N3CCC(=O)NC3=O)cc(C(C)(C)C)c2O)cc1)S(C)(=O)=O | 30 | 3550 | 460 | 1040 |  |  |  |  |  |  | > 50000
COc1c(C(=O)Nc2ccc(N(C)S(C)(=O)=O)cc2)cc(N2CCC(=O)NC2=O)cc1C(C)(C)C | 830 | 5490 | 770 | 560 |  |  |  |  |  |  | > 50000
CC(C)(C)c1cc(N2CCC(=O)NC2=O)cc(C(=O)Nc2cccc(NS(C)(=O)=O)c2)c1O | 50 | 27800 | 360 | 7560 |  |  |  |  |  |  | > 50000
CC(C)(C)c1cc(-n2ccc(=O)[nH]c2=O)cc(C(=O)Nc2ccc(NS(C)(=O)=O)cc2)c1O | 10 | 590 | 38 | 94 |  |  |  |  |  |  | 
COc1c(C(=O)Nc2ccc(NS(C)(=O)=O)cc2)cc(-n2ccc(=O)[nH]c2=O)cc1C(C)(C)C | 30 | 270 | 20 | 50 |  | 13 (≈ 6.33 µg/mL) |  | 0.2 |  |  | 
COc1c(C(=O)Nc2ccc(NS(=O)(=O)CCN3CCOCC3)cc2)cc(N2CCC(=O)NC2=O)cc1C(C)(C)C | 310 | 5310 | 110 | 580 |  | 74 (≈ 43.5 µg/mL) | 2540 | 0.1 | 0 | 36 | 

The next lines start with results.

IC50 (Hepatitis C virus [1]) [nM] | EC50 (Hepatitis C virus [2]) [nM] | IC50 [3] [nM] | EC50 (Hepatitis C virus [4]) [nM] | AUC [5] [ng·h/mL] | solubility [6] [µM] | AUC [7] [ng·h/mL] | Papp [8] [×10⁻⁶ cm/s] | bioavailability [9] [%] | half-life [10] [min] | SMILES | CC50 [11] [nM]
23000 | > 100000 | 71000 | > 100000 |  |  |  |  |  |  | CC(C)(C)c1cc(N2CCC(=O)NC2=O)ccc1O | 
 | > 100000 | 26000 | > 100000 | 5570 | 73 (≈ 20.2 µg/mL) | 12400 | 5.5 | 45 | 228 | COc1ccc(N2CCC(=O)NC2=O)cc1C(C)(C)C | 
20 | 60 | 10 | 20 | 50 | 2 (≈ 0.977 µg/mL) | 3380 | 0.5 | 1.5 | 66 | COc1c(C(=O)Nc2ccc(NS(C)(=O)=O)cc2)cc(N2CCC(=O)NC2=O)cc1C(C)(C)C | 
5120 |  | 3420 |  |  |  |  |  |  |  | COc1c(C(=O)Nc2ccc(NC(C)=O)cc2)cc(N2CCC(=O)NC2=O)cc1C(C)(C)C | 
1040 | 3400 | 670 | 860 |  |  |  |  |  |  | COc1c(C(=O)Nc2ccc(OS(C)(=O)=O)cc2)cc(N2CCC(=O)NC2=O)cc1C(C)(C)C | > 50000
7 | 1960 | 50 | 420 |  |  |  |  |  |  | CC(C)(C)c1cc(N2CCC(=O)NC2=O)cc(C(=O)Nc2ccc(NS(=O)(=O)CCN3CCOCC3)cc2)c1O | 
